What was measured:
[1] = biological target: T1, hERG K+ channel (Homo sapiens, UniProt Q12809); test: Evaluation of hERG K+ channel inhibitory activity using cells expressing human ERG (automated patch-clamp, CHO-K1); format: cell-based; conditions: CHO-K1 cells with human ERG gene, tested at 1, 3 and 10 μmol/L, 5-minute incubation
T1 construct: expressed in transfected cells; host or cells: CHO-K1
Description: Evaluation of hERG K^+ Channel Inhibitory Activity Using Cells Expressing Human ERG
CHO-K1 cells having the human ERG gene (ether-a-go-go related gene) introduced therein were subcultured in an F-12 medium [F-12 Nutrient Mixture (HAM)] containing 10% inactivated foetal bovine serum, 100 IU/mL penicillin-100 μg/mL streptomycin and 200 μg/mL geneticin.
Patch-clamp was performed in a full-automated manner using CHO-K1 cells having the human ERG gene introduced therein and having a perforated patch formed therein with amphotericin B. For the experiment, a 384-well PatchPlate™ was used and the cell suspension and compounds were added thereto. The IKr current was measured with command voltages of holding potential of −80 mV, depolarization potential of +40 mV (2 seconds) and repolarization potential of −50 mV (2 seconds). The stimulation frequency was twice (single pulse stimulations) before and after the treatment with a drug (the concentrations of a compound for evaluation were 1, 3 and 10 μmol/L, a 5-minute incubation), and the Ikr maximum current was measured. The inhibition (%) on the CHO-K1 cells having the human ERG gene introduced therein was determined by correcting the variation in the maximum tail current before and after addition of the test substance by the variation thereof in the group treated with a medium (inhibition (%)=(1-variation in current before and after addition of a test substance/variation in current before and after addition of a medium)×100). The 50% inhibitory concentration (IC50 value) was calculated from a line connecting two points on both sides of the inhibition of 50%.

[2] = system: GH secretion; test: Evaluation of suppression of growth hormone (GH) secretion using rats (GHRH-induced); format: in vivo; conditions: Rattus norvegicus, 5 min, oral, dosage of 1 mg/kg, GHRH given 8 hours after dosing, blood GH 5 minutes after GHRH
Description: A medium (distilled water (Otsuka distilled water, Otsuka Pharmaceutical Factory, Inc.)) or a test compound dissolved in the medium was orally administered to rats (7-week old male Crl:CD(SD) IGS rats (Charles River Laboratories Japan, Inc.)) and after 7 hours and 57 minutes, the animals were administered with 50 mg/kg of pentobarbital sodium (Somnopentyl, Kyoritsu Seiyaku Corporation) via the tail vein for anaesthesia. Three minutes after administration of pentobarbital sodium, the rats were administered with 0.01 mg/kg of growth hormone-releasing hormone (GHRH, Bachem) via the tail vein to induce GH secretion. In order to measure the blood GH concentration, 0.2 mL of blood was collected through the jugular vein at 5 minutes after administration of GHRH. The collected blood was centrifuged at 4° C., 13,000×g for 5 minutes to obtain plasma. The blood GH concentration was measured by using Rat/Mouse Growth Hormone ELISA (Millipore) following the instruction of the kit. The percentage (%) of suppression of GH secretion was determined by using the obtained blood GH concentration and the equation {[suppression (%) of GH secretion]=([blood GH concentration of the group administered with the medium]−[blood GH concentration of the group administered with a test compound])/[blood GH concentration of the group administered with the medium]×100}. In the equation, the group administered with the medium represents the group of animals administered with the medium and the group administered with a test compound represents the group of animals administered with a test compound dissolved in the medium.

[3] = biological target: T2, human SSTR2 (Homo sapiens, UniProt P30874); test: Evaluation of SSTR2 agonistic activity using cells expressing human SSTR2 (suppression of forskolin-stimulated cAMP production, SSTR2-CHO-K1); format: cell-based; conditions: suppression of cAMP production by forskolin stimulation, 1000 nmol/L octreotide = 100%
T2 construct: Myc; expressed in transfected cells

[4] = system: Chinese hamster lung-derived CHL/IU cells; test: Evaluation of phospholipidosis induction ability using cultured cell line (NBD-PE incorporation); format: cell-based; conditions: 24 hours, positive = 25% or more of amiodarone maximum reaction at cell viability 50% or more; for phospholipidosis induction ability (judgement): 6.25-100 μmol/L
Description: Chinese hamster lung-derived CHL/IU cells were suspended in an MEM-E culture solution containing non-essential amino acids, sodium pyruvate and 10% foetal bovine serum and seeded in a 96-well plate. The cells cultured overnight in an incubator (5% carbon dioxide, 95% air, 37° C.) were further cultured for 24 hours after replacing the culture solution with a culture solution containing 6.25, 12.5, 25, 50 or 100 μmol/L of a test substance and NBD-PE (fluorescence label N-(7-nitrobenz-2-oxa-1,3-diazol-4-yl)-1,2-dihexadecanoyl-sn-glycero-3-phosphoethanolamine triethylammonium salt) obtained from Molecular Probes. The phospholipidosis induction ability was evaluated by measuring the concentration of NBD-PE incorporated into the cells. Specifically, the cells were washed twice with PBS and then measured for the fluorescence of NBD-PE (excitation wavelength: 485 nm, fluorescence wavelength: 535 nm) incorporated in the cells on a SpectraMax plate reader available from Molecular Devices, LLC. for evaluation. After measurement of the fluorescence of NBD-PE, the cell viability was evaluated with Premix WST-1 Cell Proliferation Assay System available from TaKaRa Bio Inc. The phospholipidosis induction ability was judged to be positive when, at a dose that provided a cell viability of 50% or more, the reaction (the concentration of NBD-PE incorporated after administration of a test substance) was 25% or more of the maximum reaction of a positive control amiodarone (the concentration of NBD-PE incorporated into the cells after administration of amiodarone was regarded as 100%).

[5] = biological target: somatostatin receptor subtype 1 (SSTR1) (Homo sapiens, UniProt P30872); conditions: reported in background art; cited from earlier work
[6] = biological target: somatostatin receptor subtype 3 (SSTR3) (Homo sapiens, UniProt P32745); conditions: reported in background art; cited from earlier work
[7] = biological target: somatostatin receptor subtype 4 (SSTR4) (Homo sapiens, UniProt P31391); conditions: reported in background art; cited from earlier work
[8] = biological target: somatostatin receptor subtype 2 (SSTR2) (Homo sapiens, UniProt P30874); conditions: reported in background art; cited from earlier work
[9] = system: gastric acid secretion; test: Evaluation of suppression of gastric acid secretion using rats (pyloric ligation); format: in vivo, rat; conditions: continuous intravenous administration, 1 μg/kg/h

T2 sequence (P30874 whole entry): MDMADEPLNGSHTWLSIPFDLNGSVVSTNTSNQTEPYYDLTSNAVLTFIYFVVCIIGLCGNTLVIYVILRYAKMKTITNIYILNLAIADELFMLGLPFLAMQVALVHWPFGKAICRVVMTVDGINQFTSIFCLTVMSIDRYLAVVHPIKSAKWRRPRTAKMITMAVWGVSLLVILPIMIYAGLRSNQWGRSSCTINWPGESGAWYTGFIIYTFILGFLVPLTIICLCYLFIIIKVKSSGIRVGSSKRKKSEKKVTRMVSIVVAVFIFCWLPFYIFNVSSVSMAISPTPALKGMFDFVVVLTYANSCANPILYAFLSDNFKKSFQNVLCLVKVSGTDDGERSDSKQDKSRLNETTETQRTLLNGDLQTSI
T1 sequence (Q12809 whole entry): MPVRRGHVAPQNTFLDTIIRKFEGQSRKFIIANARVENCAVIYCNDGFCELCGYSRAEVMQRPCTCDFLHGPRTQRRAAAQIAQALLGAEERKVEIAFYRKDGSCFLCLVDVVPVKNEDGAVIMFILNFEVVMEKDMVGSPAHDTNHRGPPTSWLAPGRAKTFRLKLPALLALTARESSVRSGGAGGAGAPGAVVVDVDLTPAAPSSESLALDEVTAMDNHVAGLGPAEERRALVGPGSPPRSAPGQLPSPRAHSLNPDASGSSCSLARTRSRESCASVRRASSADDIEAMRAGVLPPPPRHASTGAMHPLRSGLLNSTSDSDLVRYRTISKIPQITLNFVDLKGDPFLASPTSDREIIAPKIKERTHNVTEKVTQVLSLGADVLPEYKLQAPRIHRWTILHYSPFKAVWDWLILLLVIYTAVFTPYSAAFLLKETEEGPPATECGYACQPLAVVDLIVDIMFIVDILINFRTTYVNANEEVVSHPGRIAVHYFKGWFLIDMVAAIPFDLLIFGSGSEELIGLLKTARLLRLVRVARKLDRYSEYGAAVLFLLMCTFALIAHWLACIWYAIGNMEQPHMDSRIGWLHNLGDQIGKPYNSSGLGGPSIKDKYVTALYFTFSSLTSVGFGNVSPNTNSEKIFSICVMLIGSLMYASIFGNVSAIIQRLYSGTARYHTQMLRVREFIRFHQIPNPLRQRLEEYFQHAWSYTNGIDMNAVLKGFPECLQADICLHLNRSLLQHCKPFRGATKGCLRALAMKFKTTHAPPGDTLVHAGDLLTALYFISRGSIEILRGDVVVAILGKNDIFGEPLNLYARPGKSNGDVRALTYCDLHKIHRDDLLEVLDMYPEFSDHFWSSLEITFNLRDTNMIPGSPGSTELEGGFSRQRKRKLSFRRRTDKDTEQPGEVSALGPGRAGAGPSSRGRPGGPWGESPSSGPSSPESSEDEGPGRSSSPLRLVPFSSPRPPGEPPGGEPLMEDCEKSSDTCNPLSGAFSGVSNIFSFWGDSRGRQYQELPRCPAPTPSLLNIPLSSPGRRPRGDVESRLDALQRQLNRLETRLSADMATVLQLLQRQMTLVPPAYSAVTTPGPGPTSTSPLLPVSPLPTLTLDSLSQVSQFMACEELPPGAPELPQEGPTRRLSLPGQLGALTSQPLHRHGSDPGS
Chain of somatostatin receptor subtype 2 (SSTR2) (P30874 whole entry, species assumed): as the sequence (P30874 whole entry) above
Chain of somatostatin receptor subtype 4 (SSTR4) (P31391 whole entry, species assumed): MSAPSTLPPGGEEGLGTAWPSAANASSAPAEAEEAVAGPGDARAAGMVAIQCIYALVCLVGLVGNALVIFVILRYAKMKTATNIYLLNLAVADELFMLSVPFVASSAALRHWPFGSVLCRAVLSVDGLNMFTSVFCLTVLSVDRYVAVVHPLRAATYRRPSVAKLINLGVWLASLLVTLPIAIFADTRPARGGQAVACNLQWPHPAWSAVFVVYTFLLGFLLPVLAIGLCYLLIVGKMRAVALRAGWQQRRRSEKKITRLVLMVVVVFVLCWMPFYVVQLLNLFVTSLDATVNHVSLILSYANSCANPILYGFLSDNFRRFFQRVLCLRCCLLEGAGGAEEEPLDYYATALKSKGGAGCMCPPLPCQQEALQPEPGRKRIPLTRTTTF
Chain of somatostatin receptor subtype 1 (SSTR1) (P30872 whole entry, species assumed): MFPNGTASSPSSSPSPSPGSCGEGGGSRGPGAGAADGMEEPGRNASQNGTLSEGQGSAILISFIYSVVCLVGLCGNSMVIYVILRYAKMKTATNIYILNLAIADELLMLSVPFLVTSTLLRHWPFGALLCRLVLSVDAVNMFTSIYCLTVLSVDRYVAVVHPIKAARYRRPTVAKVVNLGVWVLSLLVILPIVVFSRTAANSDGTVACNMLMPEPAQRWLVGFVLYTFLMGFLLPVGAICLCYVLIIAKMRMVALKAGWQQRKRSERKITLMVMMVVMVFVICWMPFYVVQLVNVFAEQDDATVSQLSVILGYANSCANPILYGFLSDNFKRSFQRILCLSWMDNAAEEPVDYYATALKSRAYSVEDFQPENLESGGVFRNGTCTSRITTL
Chain of somatostatin receptor subtype 3 (SSTR3) (P32745 whole entry, species assumed): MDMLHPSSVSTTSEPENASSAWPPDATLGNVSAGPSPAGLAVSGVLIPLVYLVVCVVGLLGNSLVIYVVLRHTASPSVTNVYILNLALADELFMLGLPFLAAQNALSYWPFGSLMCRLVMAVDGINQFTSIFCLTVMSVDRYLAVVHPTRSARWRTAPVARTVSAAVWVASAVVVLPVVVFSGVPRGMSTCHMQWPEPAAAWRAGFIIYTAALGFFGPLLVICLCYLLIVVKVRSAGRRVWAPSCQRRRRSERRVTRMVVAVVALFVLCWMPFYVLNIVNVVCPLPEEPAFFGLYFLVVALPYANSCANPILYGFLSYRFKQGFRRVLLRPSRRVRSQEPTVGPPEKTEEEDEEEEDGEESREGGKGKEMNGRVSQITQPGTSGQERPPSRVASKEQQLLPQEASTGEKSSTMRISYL

SMILES | IC50 [1] | inhibition in vivo at 1 mg/kg [2] | EC50 [3] | concentration at which judged to be positive in phospholipidosis induction ability [4] | binding to SSTR1 [5] | binding affinity to SSTR3 [6] | binding to SSTR4 [7] | binding affinity to SSTR2 [8] | phospholipidosis induction ability (judgement) [4] | percentage of suppression of gastric acid secretion [9]
COC(=O)c1cc(F)cc2nc(-c3c(C)ncc(-c4cc(F)cc(Cl)c4)c3N3CC[C@@H](N)[C@@H](O)C3)[nH]c12 [Example 2(3), Methyl 2-{4-[(3S,4R)-4-amino-3-hydroxy-1-piperidinyl]-5-(3-chloro-5-fluorophenyl)-2-methyl-3-pyridinyl}-5-fluoro-1H-benzimidazole-7-carboxylate] | 5200 nM | 76% | 0.019 nM | 12.5 µM | – | – | – | – | – | –
CC(C)[C@@H]1NC(=O)[C@H](CCCCN)NC(=O)[C@@H](Cc2c[nH]c3ccccc23)NC(=O)[C@H](Cc2ccc(O)cc2)NC(=O)[C@@H](NC(=O)[C@H](N)Cc2ccc3ccccc3c2)CSSC[C@@H](C(=O)N[C@H](C(N)=O)[C@@H](C)O)NC1=O [lanreotide acetate] | – | – | – | – | do not bind | moderate affinity | do not bind | high affinity | – | –
Cc1ncc(-c2cc(F)cc(Cl)c2)c(N2CC[C@@H](NC3COC3)[C@@H](O)C2)c1-c1nc2cc(F)c(F)cc2[nH]1 [Example 3(5), (3S,4R)-1-[5-(3-chloro-5-fluorophenyl)-3-(5,6-difluoro-1H-benzimidazol-2-yl)-2-methyl-4-pyridinyl]-4-(3-oxetanylamino)-3-piperidinol] | 9600 nM | 83% | 0.023 nM | – | – | – | – | – | negative | –
Cc1ncc(-c2cc(F)cc(F)c2)c(N2CC[C@@H](NCCC(F)(F)F)[C@@H](O)C2)c1-c1nc2cc(F)c(F)cc2[nH]1 [Example 3(12), (3S,4R)-1-[3-(5,6-difluoro-1H-benzimidazol-2-yl)-5-(3,5-difluorophenyl)-2-methyl-4-pyridinyl]-4-[(3,3,3-trifluoropropyl)amino]-3-piperidinol] | 5100 nM | 85% | 1 nM | – | – | – | – | – | negative | –
O[C@H]1CN(c2c(-c3cc(F)cc(F)c3)cncc2-c2nc3cc(F)c(F)cc3[nH]2)CC[C@H]1NC1COC1 [Example 5, (3S,4R)-1-[3-(5,6-difluoro-1H-benzimidazol-2-yl)-5-(3,5-difluorophenyl)-4-pyridinyl]-4-(3-oxetanylamino)-3-piperidinol] | 7600 nM | 92% | 0.14 nM | – | – | – | – | – | negative | –
C[C@@H](O)[C@@H]1NC(=O)[C@H](CCCCN)NC(=O)[C@@H](Cc2c[nH]c3ccccc23)NC(=O)[C@H](Cc2ccccc2)NC(=O)[C@@H](NC(=O)[C@H](N)Cc2ccccc2)CSSC[C@@H](C(=O)N[C@H](CO)[C@@H](C)O)NC1=O [octreotide] | – | – | – | – | – | – | – | – | – | 39%
